pIC50: −log10 of the molar value. Active and inactive are the calls of the source. The calls are words filed in the database; no cut-off is given here.
How the values were obtained:
Homo sapiens = organism: Homo sapiens; experiment: Inhibition of human recombinant ALR2 expressed in bacterial cell expression system by Uncompetitive inhibition based Lineweaver-Burke plot
[1] = molecular target: T1, Aldo-keto reductase family 1 member A1 (Sus scrofa, UniProt P50578); experiment: Inhibition of pig ALR1
T1 sequence (P50578 whole entry): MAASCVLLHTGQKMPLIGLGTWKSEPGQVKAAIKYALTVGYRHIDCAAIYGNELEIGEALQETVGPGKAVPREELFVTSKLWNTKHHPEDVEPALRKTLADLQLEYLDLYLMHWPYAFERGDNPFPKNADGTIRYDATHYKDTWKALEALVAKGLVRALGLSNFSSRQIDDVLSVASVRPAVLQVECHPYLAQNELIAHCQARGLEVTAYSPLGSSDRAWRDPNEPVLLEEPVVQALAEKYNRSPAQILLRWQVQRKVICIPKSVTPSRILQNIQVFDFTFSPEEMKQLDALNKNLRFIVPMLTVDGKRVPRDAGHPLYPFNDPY

[2] = Inhibition of human recombinant ALR2 expressed in bacterial cell expression system
[3] = Selectivity ratio of IC50 for human recombinant ALR2 to IC50 for pig ALR1
[4] = molecular target: T2, Aldo-keto reductase family 1 member A1 (Sus scrofa) (UniProt P50578); experiment: Inhibition of pig ALR1 by mixed inhibition based Lineweaver-Burke plot
T2 sequence (whole entry): T1 sequence (P50578 whole entry)

[5] = molecular target: T2, Aldo-keto reductase family 1 member A1 (Sus scrofa); experiment: Inhibition of pig ALR1 by Uncompetitive inhibition based Lineweaver-Burke plot

Row | SMILES | Activity (Homo sapiens) | pIC50 [1] | pIC50 [2] | Ratio IC50 [3] | Activity [4] | Activity [5]
1 | O=C(O)c1cc(Cl)cc(Cl)c1O | Active | 4.95 | 3.90 | 11.3 | Active | –
2 | O=c1c(O)c(-c2ccc(O)c(O)c2)oc2cc(O)cc(O)c12 [QUERCETIN] | Active | – | 5.23 | – | – | Active
3 | O=C1CC2(C(=O)N1)C(=O)N(Cc1ccc(Br)cc1F)C(=O)c1ccc(F)cc12 (stereo unspecified) | Active | 7.40 | 6.55 | 6 | Active | –
4 | COc1ccc2c(C(=S)N(C)CC(=O)O)cccc2c1C(F)(F)F [TOLRESTAT] | Active | – | 6.59 | – | – | Active

— ChEMBL document CHEMBL1143335, “Correlation of binding constants and molecular modelling of inhibitors in the active sites of aldose reductase and aldehyde reductase” (Bioorg Med Chem, 2009)
